Experiment: Antimicrobial activity assay: whole-cell MIC by broth microdilution (NCCLS M7-A6)
Type: cell-based
Settings: not given
Procedure, shortened: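 Broth microdilution per NCCLS M7-A6, with serial two-fold compound dilutions from 0.016 to 16 mcg/mL. MIC read as the lowest concentration inhibiting visible growth, using a mirror reader.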

Row | Structure (SMILES) | MIC
1 | COc1ccc2ncc(Cl)c(C(O)CN3CCC(NCc4ccc5c(n4)NC(=O)CO5)CC3)c2n1.Cl.Cl (racemic) [Example 1, 6-({1-[(Racemic)-2-(3-Chloro-6-methoxy-[1,5]naphthyridin-4-yl)-2hydroxy-ethyl]-piperidin-4-ylamino}-methyl)-4H-pyrido[3,2-b][1,4]oxazin-3-one Dihydrochloride] | ≤ 2 µg/mL
2 | COc1ccc2ncc(F)c(CCN3CCC(NCc4ccc5c(n4)NCCS5)CC3)c2c1.Cl.Cl [Example 81, N-(3,4-dihydro-2H-pyrido[3,2-b][1,4]thiazin-6-ylmethyl)-1-{2-[3-fluoro-6-(methoxy)-4-quinolinyl]ethyl}-4-piperidinamine dihydrochloride] | ≤ 2 µg/mL
3 | COc1ccc2ncc(F)c(CCN3CC[C@H](NCc4ccc5c(n4)NC(=O)CO5)[C@H](O)C3)c2n1.Cl.Cl [Example 68, 6-{[((3R,4S)-1-{2-[3-fluoro-6-(methoxy)-1,5-naphthyridin-4-yl]ethyl}-3-hydroxy-4-piperidinyl)amino]methyl}-2H-pyrido[3,2-b][1,4]oxazin-3(4H)-one dihydrochloride] | ≤ 2 µg/mL
4 | COc1ccc2ncc(F)c(CCN3CCC(NCc4ccc5nsnc5c4)CC3)c2c1.Cl.Cl [Example 79, N-(2,1,3-benzothiadiazol-5-ylmethyl)-1-{2-[3-fluoro-6-(methoxy)-4-quinolinyl]ethyl}-4-piperidinamine dihydrochloride] | ≤ 2 µg/mL

Same assay, conditions: versus all the organisms named above (S. aureus WCUH29, S. pneumoniae 1629, S. pyogenes CN 10, E. faecalis 2, H. influenzae NEMC1, E. coli 7623, M. catarrhalis Ravasio); read-out: MIC

Row | Structure (SMILES) | MIC
5 | COc1ccc2ncc(F)c(CCN3CCC(C)(NCc4ccc5c(n4)NC(=O)CO5)CC3)c2n1.Cl.Cl [Example 138, 6-{[(1-{2-[3-fluoro-6-(methoxy)-1,5-naphthyridin-4-yl]ethyl}-4-methyl-4-piperidinyl)amino]methyl}-2H-pyrido[3,2-b][1,4]oxazin-3(4H)-one dihydrochloride] | ≤ 2 µg/mL
6 | COc1ccc2ncc(Cl)c(CCN3CCC(CO)(NCc4ccc5c(n4)NC(=O)CS5)CC3)c2c1.Cl.Cl [Example 21, 6-({1-[2-(3-Chloro-6-methoxyquinolin-4-yl)ethyl]4-hydroxymethylpiperidin-4-ylamino}methyl)-4H-pyrido[3,2-b][1,4]thiazin-3-one Dihydrochloride] | ≤ 2 µg/mL
7 | COc1ccc2ncc(F)c(CCN3CC[C@H](NCc4cc5c(cn4)OCCO5)[C@H](O)C3)c2n1.Cl.Cl (single isomer, unassigned; enantiomer 1) [Example 66] | ≤ 2 µg/mL
8 | COc1ccc2ncc(F)c(CCN3CCC(NCc4ccc5c(c4)NC(=O)CCS5)CC3)c2n1 [Example 128, 7-{[(1-{2-[3-fluoro-6-(methoxy)-1,5-naphthyridin-4-yl]ethyl}-4-piperidinyl)amino]methyl}-2,3-dihydro-1,5-benzothiazepin-4(5H)-one] | ≤ 2 µg/mL
9 | COc1ccc2ncc(Cl)c(CCN3CC[C@H](NCc4cc5c(cn4)OCCO5)[C@H](O)C3)c2n1.Cl.Cl (single isomer, unassigned; enantiomer 1) [Example 29, (cis)-1-[2-(3-Chloro-6-methoxy-[1,5]naphthyridin-4-yl)-ethyl]-4-[(2,3-dihydro-[1,4]dioxino[2,3-c]pyridin-7-ylmethyl)-amino]-piperidin-3-ol Dihydrochloride Enantiomer 1] | ≤ 2 µg/mL
10 | COc1cc(F)c2ncc(F)c(CCN3CCC(NCc4cc5c(cn4)OCCO5)CC3)c2c1.Cl.Cl [Example 47, 1-{2-[3,8-difluoro-6-(methoxy)-4-quinolinyl]ethyl}-N-(2,3-dihydro[1,4]dioxino[2,3-c]pyridin-7-ylmethyl)-4-piperidinamine dihydrochloride] | ≤ 2 µg/mL

— patent US20060041123A1, “Antibacterial agents” (priority 2002, published 2006)
